Data from paper PMC8700709, “Cannabidiol Inhibits Tau Aggregation In Vitro” (Cells, 2021).

Biological target: T1, tau protein 1N/4R isoform (Homo sapiens, UniProt P10636)
T1 construct: gene MAPT; recombinant human His-tagged tau 1N/4R isoform, expressed in E. coli BL21(DE3)
Assay: intrinsic Tyr fluorescence quenching titration (Stern-Volmer/Hill; Kb at […] °C), Job's plot […]; supported by ThT aggregation assay, CD and AFM
Assay type: binding
Settings: read-out: Kb×10^4(M^-1) (converted)

T1 sequence (P10636 1-412 isoform P10636-7): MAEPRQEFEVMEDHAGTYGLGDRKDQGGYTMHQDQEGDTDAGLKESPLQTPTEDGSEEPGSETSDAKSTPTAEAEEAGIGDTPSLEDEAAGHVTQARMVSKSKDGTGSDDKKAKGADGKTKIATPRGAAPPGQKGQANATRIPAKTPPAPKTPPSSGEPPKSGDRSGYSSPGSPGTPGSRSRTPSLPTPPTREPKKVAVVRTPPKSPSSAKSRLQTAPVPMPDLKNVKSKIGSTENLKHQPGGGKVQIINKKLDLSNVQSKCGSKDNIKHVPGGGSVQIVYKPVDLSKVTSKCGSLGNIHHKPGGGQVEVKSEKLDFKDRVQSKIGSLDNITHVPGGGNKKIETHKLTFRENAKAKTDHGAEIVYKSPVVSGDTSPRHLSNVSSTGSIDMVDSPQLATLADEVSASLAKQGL

Question: With C=C(C)[C@@H]1CCC(C)=C[C@H]1c1c(O)cc(CCCCC)cc1O [Cannabidiol] as the compound, how does the Kd read?
Answer: The Kd was 23.8 µM.
